Experimental data from ChEMBL document CHEMBL1158130, “Cembrane diterpenes from the gorgonian Lophogorgia peruana” (2006).
Activity calls are given as the source filed them. The calls are words filed in the database; no cut-off is given here.

Legend:
HT-29 [1] = experiment: Growth inhibition of human HT-29 cells by sulforhodamine B assay; type: functional; conditions: for CC50: read-out: LC50 (the source's name)
MDA-MB-231 [2] = experiment: Growth inhibition of human MDA-MB-231 cells by sulforhodamine B assay; type: functional
A549 [3] = experiment: Growth inhibition of human A549 cells by sulforhodamine B assay; type: functional
HT-29 [4] = experiment: Growth inhibition of human HT-29 cells up to 25 uM by sulforhodamine B assay; type: functional, cell-based
MDA-MB-231 [5] = experiment: Growth inhibition of human MDA-MB-231 cells up to 25 uM by sulforhodamine B assay; type: functional, cell-based
A549 [6] = experiment: Growth inhibition of human A549 cells up to 25 uM by sulforhodamine B assay; type: functional, cell-based

| Structure (SMILES) | GI50 (HT-29 [1]) [µM] | GI50 (MDA-MB-231 [2]) [µM] | GI50 (A549 [3]) [µM] | TGI (A549 [3]) [µM] | Activity (HT-29 [4]) | Activity (MDA-MB-231 [5]) | Activity (A549 [6]) | TGI (HT-29 [1]) [µM] | CC50 (HT-29 [1]) [µM] | LC50 (50% lethal concentration) (MDA-MB-231 [2]) [µM] | TGI (MDA-MB-231 [2]) [µM] | CC50 (A549 [3]; read-out: LC50 (the source's name)) [µM] |
| --- | --- | --- | --- | --- | --- | --- | --- | --- | --- | --- | --- | --- |
| CC(=O)OCC1([C@H]2CC3=C(C=O)C=C(O3)[C@H]3O[C@]3(C)C[C@@H]3OC(=O)[C@]4(O[C@@H]34)[C@H](OC(C)=O)C2)CO1 (stereo not given in full) | 8.2 | 5.1 | 5.1 | 6.9 |  |  |  |  |  |  |  |  |
| C=C(C)[C@@H]1CC[C@]2(C)O[C@H]2CC[C@H](C)/C=C/C=C(/C)C(=O)C1 |  |  |  |  | inactive | inactive | inactive |  |  |  |  |  |
| C=C(C)[C@@H]1CCC2=C[C@H](C[C@@]3(C)O[C@@H]3C(=O)/C=C(\C)C(=O)C1)OC2=O [ISOEPOXYLOPHODIONE] | 4.1 | 2.7 | 2.9 | 5.5 |  |  |  | 4.4 | 4.9 | 4.1 | 3.2 |  |
| C=C(C)[C@H]1CC2=C(C=O)C=C(O2)[C@H]2O[C@@]2(C)C[C@@H]2OC(=O)[C@]3(O[C@@H]23)[C@H](OC(C)=O)C1 | 5 | 4.8 | 5.3 | 8.4 |  |  |  | 6 | 8.4 |  | 6.2 |  |
| C=C(C)[C@H]1CC2=C(C=O)C=C(O2)[C@H](OC(C)=O)[C@@](C)(OC(C)=O)C[C@@H]2OC(=O)[C@]3(O[C@@H]23)[C@H](OC(C)=O)C1 [7-EPI-7,8-DI-O-ACETYLLOPHODIOL A] | 6.2 | 3.7 | 3.3 | 3.5 |  |  |  | 6.6 | 6.9 |  |  | 3.9 |
| C=C(C)[C@H]1CC2=C(C=O)C=C(O2)[C@@H](O)[C@@](C)(O)C[C@@H]2OC(=O)[C@]3(O[C@@H]23)[C@H](OC(C)=O)C1 |  |  |  |  | inactive | inactive | inactive |  |  |  |  |  |
| CC(=O)O[C@@H]1C[C@@H](C2(C)CO2)CC2=C(C=O)C=C(O2)[C@H]2O[C@]2(C)C[C@@H]2OC(=O)[C@]13O[C@@H]23 (stereo not given in full) | 4.6 | 5.8 | 6 | 9.7 |  |  |  | 6.2 | 9.2 |  |  |  |
| C=C(C)[C@@H]1CC2=C(C=O)C=C(O2)[C@@H]2O[C@@]2(C)C[C@H]2OC(=O)[C@@]3(O[C@H]23)[C@@H](OC(C)=O)C1 |  |  |  |  | inactive | inactive | inactive |  |  |  |  |  |
| C=C(C)[C@H]1CC2=C(C=O)C=C(O2)[C@H](O)[C@@](C)(O)C[C@@H]2OC(=O)[C@]3(O[C@@H]23)[C@H](OC(C)=O)C1 [7-EPI-LOPHODIOL A] | 2.8 | 3.2 | 3.9 |  |  |  |  | 4.8 |  | 8.5 | 4.6 |  |
| C=C(C)[C@H]1CC2=C(C=O)C=C(O2)[C@H](O)[C@](C)(O)C[C@@H]2OC(=O)[C@]3(O[C@@H]23)[C@H](OC(C)=O)C1 [LOPHODIOL B] | 14.7 |  |  |  |  |  |  |  |  |  |  |  |
| C=C(COC(C)=O)[C@H]1CC2=C(C=O)C=C(O2)[C@H]2O[C@]2(C)C[C@@H]2OC(=O)[C@]3(O[C@@H]23)[C@H](OC(C)=O)C1 |  | 14.5 | 17.9 |  |  |  |  |  |  |  |  |  |
